From patent US11466044B2 (WAYNE STATE UNIVERSITY, priority 2017, dated 2022)
≈ marks a conversion by molar mass, not a printed value. Like-named read-outs stand apart in the source and are kept apart here.

How the values were obtained:
M. smegmatis SZ380 = experiment: MIC by broth microdilution, M. smegmatis; settings: Mycolicibacterium smegmatis
[1] = system: E coli carrying specific resistance determinants; experiment: MIC by broth microdilution, E coli carrying specific resistance determinants; format: cell-based; settings: for MIC: Escherichia coli
[2] = system: wild type bacterial ribosomes; experiment: in-vitro translation assay, bacterial ribosomes; format: biochemical; settings: for IC50: bacterial ribosome, Table 4 (Example 3), read-out: IC50 Bac; for selectivity for the bacterial ribosome over mitochondrial (wild type, A1555G mutant) and cytosolic ribosomes, in words: compared with the parent compound
Description: (§1) The antiribosomal activity of these compounds was investigated with cell-free translation assays using both wild type bacterial ribosomes and hybrid ribosomes carrying eukaryotic decoding A sites enabling the prediction of selectivity.

[3] = system: A1555G mutant mitochondrial ribosome (human chimeric); experiment: in-vitro translation assay, human chimeric ribosomes, A1555G mutant mitochondrial decoding site; format: biochemical; settings: Table 3 (Example 3)
Description: as §1

[4] = system: mitochondrial ribosome (human chimeric); format: biochemical; settings: for Selectivity for Binding to the Bacterial Ribosome over the Mitochondrial Ribosome: Table 3 (Example 3); for IC50: mitochondrial, Table 4 (Example 3), read-out: IC50 Mit
Description: as §1

[5] = system: cytosolic ribosome (human chimeric); format: biochemical; settings: for Selectivity for Binding to the Bacterial Ribosome over the Cytosolic Ribosome: Table 3 (Example 3); for IC50: cytosolic, Table 4 (Example 3), read-out: IC50 Cyt
Description: as §1

P aeruginosa = experiment: MIC by broth microdilution, P aeruginosa isolates; format: cell-based, Pseudomonas aeruginosa; settings: strain AG220 Pseudomonas aeruginosa ATCC27853; read-out: MIC AG220 P. aerugin
[6] = system: Enterobacter cloacae AG290; experiment: MIC by broth microdilution, Enterobacter cloacae; format: cell-based; settings: strain AG290 Enterobacter cloacae; read-out: MIC AG290 E. cloacae
MRSA = experiment: MIC by broth microdilution, MRSA isolates; format: cell-based; settings: Staphylococcus aureus, MRSA, Table 1 (Example 3)
[7] = system: Klebsiella pneumonia AG215; experiment: MIC by broth microdilution, Klebsiella pneumonia; format: cell-based; settings: Klebsiella pneumoniae; strain AG215 Klebsiella pneumonia; read-out: MIC AG215 K. pneumon
[8] = Casinelli et al., J Antibiotics 1978, 31, 378 and 382; cited from earlier work
M. abscessus = experiment: MIC by broth microdilution, M. abscessus; format: cell-based; settings: Mycobacteroides abscessus
[9] = system: Acinetobacter baumannii pittii AG225; experiment: MIC by broth microdilution, Acinetobacter baumannii; format: cell-based; settings: strain AG225 Acinetobacter baumannii pittii
E coli wild type = experiment: MIC by broth microdilution, wild type E coli; format: cell-based; settings: for MIC: Escherichia coli
N. gonorrhoeae = experiment: Disk diffusion, N. gonorrhoeae; format: cell-based; settings: Neisseria gonorrhoeae
[10] = SZ380, read-out: MIC M. smegmatis SZ380 WT, SZ380 WT, Table 5 (Example 3)
[11] = SZ380, read-out: MIC SZ380 M. smegmatis, strain SZ380 Mycobacterium smegmatis
[12] = read-out: MIC E. coli AAC(2′) AG106
[13] = read-out: MIC E. coli AAC(2′) pH434
[14] = read-out: MIC E. coli pGB2armA armA
[15] = read-out: MIC E. coli pH434 AAC(2′)-Ib
[16] = clinical isolate AG038, read-out: MIC MRSA AG038
[17] = clinical isolate AG039, read-out: MIC MRSA AG039
[18] = clinical isolate AG042, read-out: MIC MRSA AG042
[19] = clinical isolate AG044, read-out: MIC MRSA AG044
[20] = ATCC19977, ATCC 19977 WT, Table 5 (Example 3), read-out: MIC M. abscessus ATCC 19977 WT
[21] = read-out: MIC M. abscessus engineered Δeis2
[22] = ATCC, Table 4 (Example 3), read-out: MIC M. abscessus ATCC
[23] = Clin. Isol., Table 4 (Example 3), read-out: MIC M. abscessus Clin. Isol.
[24] = ATCC25922, strain AG212 E. coli (ATCC25922), read-out: MIC AG212 E. coli
[25] = WT, Table 4 (Example 3), read-out: MIC E. coli WT
[26] = WT, Table 5 (Example 3), read-out: MIC E. coli WT
[27] = clinical isolate AG001, Table 1 (Example 3), read-out: MIC E coli AG001
[28] = clinical isolate AG003, Table 1 (Example 3), read-out: MIC E coli AG003
[29] = clinical isolate AG055, Table 1 (Example 3), read-out: MIC E coli AG055

Compound	MIC (M. smegmatis SZ380; [10]) [µg/mL]	MIC (M. smegmatis SZ380; [11]) [µg/mL]	MIC [1, 12] [µg/mL]	MIC [1, 13] [µg/mL]	MIC [1, 14] [µg/mL]	MIC [1, 15] [µg/mL]	IC50 [2] [µM]	selectivity for the bacterial ribosome over mitochondrial (wild type, A1555G mutant) and cytosolic ribosomes, in words [2]	Selectivity for Binding to the Bacterial Ribosome over the Mutant Mitochondrial Ribosome [3]	Selectivity for Binding to the Bacterial Ribosome over the Mitochondrial Ribosome [4]	IC50 [4] [µM]	Selectivity for Binding to the Bacterial Ribosome over the Cytosolic Ribosome [5]	IC50 [5] [µM]	MIC (P aeruginosa) [µg/mL]	MIC [6] [µg/mL]	MIC (MRSA; [16]) [µg/mL]	MIC (MRSA; [17]) [µg/mL]	MIC (MRSA; [18]) [µg/mL]	MIC (MRSA; [19]) [µg/mL]	MIC [7] [µg/mL]	also measured
NCC1OC(OC2C(CO)OC(OC3C(O)C(N)CC(N)C3OC3OC(CN)C(O)C(O)C3O)C2O)C(N)C(O)C1O (centres unmarked) [Compound 119]	0.5 (≈ 0.812 µM)	0.5 (≈ 0.812 µM)	1 (≈ 1.62 µM)	4 (≈ 6.5 µM)	1 (≈ 1.62 µM)	4 (≈ 6.5 µM)	0.03	increased selectivity for the bacterial ribosome	94	1222	36	3667	108	> 64	1 (≈ 1.62 µM)	2 (≈ 3.25 µM)	> 128	> 128	2 (≈ 3.25 µM)	0.5 (≈ 0.812 µM)	effect of the AAC(2′) resistance determinant, in words ([1]; AAC(2′)): overcomes the effect of AAC(2′); MIC ([1]; read-out: MIC E coli AG106 AAC(2′)): 1 µg/mL (≈ 1.62 µM); MIC ([1]; read-out: MIC E. coli AG106 AAC(2′)-Ia): 1 µg/mL (≈ 1.62 µM); antibiotic potency compared with the parent compounds, in words [8]: comparable antibiotic potency to the parent compounds; MIC (M. abscessus; [20]): 2 µg/mL (≈ 3.25 µM); MIC (M. abscessus; [21]): 0.125 µg/mL (≈ 0.203 µM); MIC (M. abscessus; [22]): 2 µg/mL (≈ 3.25 µM); MIC (M. abscessus; [23]): 4 µg/mL (≈ 6.5 µM); MIC [9]: 1 µg/mL (≈ 1.62 µM); MIC (E coli wild type; AG006 Wild type, Table 2 (Example 3), read-out: MIC E coli AG006 Wild type): 0.5 µg/mL (≈ 0.812 µM); MIC (E coli wild type; AG104 Wild type, Table 2 (Example 3), read-out: MIC E coli AG104 Wild type): 1 µg/mL (≈ 1.62 µM); MIC (E coli wild type; [24]): 1 µg/mL (≈ 1.62 µM); MIC (E coli wild type; [25]): 0.5 to 1 µg/mL (≈ 0.812 to 1.62 µM); MIC (E coli wild type; [26]): 0.5 to 1 µg/mL (≈ 0.812 to 1.62 µM); MIC (E coli wild type; [27]): 2 to 4 µg/mL (≈ 3.25 to 6.5 µM); MIC (E coli wild type; [28]): 2 to 4 µg/mL (≈ 3.25 to 6.5 µM); MIC (E coli wild type; [29]): 2 to 4 µg/mL (≈ 3.25 to 6.5 µM); antibacterial activity, in words (E coli wild type; MRSA and E coli, compared with the parent compound): little to no loss of antibacterial activity
CCNC1C(OC2C(N)CC(N)C(O)C2OC2OC(CO)C(OC3OC(CN)C(O)C(O)C3N)C2O)OC(CO)C(O)C1O (centres unmarked) [Compound 127]	4 (≈ 6.21 µM)	4 (≈ 6.21 µM)	2 (≈ 3.11 µM)	4 (≈ 6.21 µM)	4 to 8 (≈ 6.21 to 12.4 µM)	4 (≈ 6.21 µM)	0.03	increased selectivity for the bacterial ribosome	1804	4715	141	918	28	> 64	2 to 4 (≈ 3.11 to 6.21 µM)	8 (≈ 12.4 µM)	> 128	> 128	4 to 8 (≈ 6.21 to 12.4 µM)	2 (≈ 3.11 µM)	zone of inhibition at 25 nmol/disc (N. gonorrhoeae): 9 mm; antibiotic potency compared with the parent compounds, in words [8]: comparable antibiotic potency to the parent compounds; MIC (M. abscessus; [20]): 32 µg/mL (≈ 49.7 µM); MIC (M. abscessus; [21]): 0.5 µg/mL (≈ 0.777 µM); MIC (M. abscessus; [22]): 32 µg/mL (≈ 49.7 µM); MIC (M. abscessus; [23]): 64 µg/mL (≈ 99.4 µM); MIC [9]: 4 µg/mL (≈ 6.21 µM); MIC (E coli wild type; [24]): 4 µg/mL (≈ 6.21 µM); MIC (E coli wild type; [25]): 2 µg/mL (≈ 3.11 µM); MIC (E coli wild type; [26]): 2 µg/mL (≈ 3.11 µM); MIC (E coli wild type; [27]): 16 µg/mL (≈ 24.9 µM); MIC (E coli wild type; [28]): 16 µg/mL (≈ 24.9 µM); MIC (E coli wild type; [29]): 16 µg/mL (≈ 24.9 µM)
